The assay deals with P. falciparum 3D7 growth, pLDH absorbance. Kind of assay: blood-stage malaria parasite growth potency – strain 3D7, dose response (AID 2305).
For orientation: IC50 means the concentration that inhibits the measured activity by half. Lower therefore signals higher potency. `CCc1nc2c(cnn2CC)c(NC2CCOCC2)c1CNC(=O)c1ccoc1C`: the IC50 was 890 nM. Then `CC(Cc1ccc(OCCOc2ccccc2)cc1)NCC(O)c1cccc(Cl)c1` (stereo not drawn), with 1040 nM.

`COCCNCc1ncsc1-c1ccc2c(Nc3ccc(Oc4ccccc4)cc3)ccnc2c1` gave an IC50 of 900 nM. For `COc1ccc(S(=O)(=O)Nc2cc(C)cc(Br)c2OC)cc1N1CCN(C(=O)C(Cl)(Cl)Cl)CC1` the value was 870 nM; for `Cc1ccc(O)cc1Nc1ccnc2cc(-c3nccs3)ccc12`, 880 nM; for `COc1cc2nc(N3CCC(CNC(=O)c4cccc5cccnc45)CC3)nc(N)c2cc1OC`, 1700 nM. Molecule `CCOc1ccc(-c2cc3nc(C4CCNCC4)c(C(=O)Nc4ccc(C)cc4Cl)cn3n2)cc1` returned an IC50 of 920 nM. For `COc1ccc(-c2nc(NC(=O)CSc3ccc([N+](=O)[O-])cc3)sc2C)cc1` the value was 140 nM.

`CC(C)CSc1cc(C(=O)Nc2cc(Cl)ccc2O)ccn1` showed an IC50 of 670 nM. For `Cc1cccc2[nH]c(-c3ccc(-c4cccc(NC(=O)CCc5cnc[nH]5)c4)cc3)nc12` the value was 410 nM; for `O=C(Nc1cccc(CN2CCN(C(=O)c3cccc(F)c3)CC2)c1)c1ccco1`, 770 nM. Turning to `NC(=O)c1ccccc1OCC(=O)Nc1cccc(-c2ccc(-c3nc4ccccc4[nH]3)cc2)c1`, the IC50 was found to be 790 nM. The molecule `Cc1c(Cl)ccc2c(C(=O)Nc3ccncc3)cc(-c3cccnc3)nc12` showed an IC50 of 780 nM.

In the case of `Cc1cc(NC(=O)NCCN2CCC(NS(=O)(=O)c3ccccc3Cl)C2)c2ccccc2n1` (stereo not drawn), the IC50 was determined as 820 nM. Then `CN1CCC[C@H]1COc1ccc(CN2CC[C@H](NC(=O)c3ccc(Cl)c(Cl)c3)C2)cc1Cl`, with 1150 nM; and `Cc1cc(NCC(C)C)c2[nH]nc(-c3ccccc3)c2n1`, with 740 nM; and `Cc1noc(C)c1-c1cccc(CNCc2ccc(-c3ccc(-c4nc5ccccc5[nH]4)s3)cc2)c1`, with 560 nM.

Molecule `Cc1ccc(CCNCC(O)c2cccc(C(F)(F)F)c2)cc1` (stereo not drawn) gave an IC50 of 870 nM.

`Cn1ccnc1CNC(=O)c1ccc(-c2cccc(-c3nc4ccc(F)cc4[nH]3)c2)cc1` returned a 50% inhibitory concentration (IC50) of 980 nM. `Cc1ccc(F)cc1S(=O)(=O)NCC(C)c1ccc(NC(=O)Nc2cccc(F)c2)cc1` (stereo not drawn) had an IC50 of 970 nM.

`O=C(Nc1cccc(CN2CCCN(CCc3ccccc3)CC2)c1)c1ccc(Cl)c(Cl)c1` had an IC50 of 950 nM.

Turning to `COc1ccc2ncc(F)c(CCN3CCC(NCc4cc5c(cn4)OCCS5)CC3)c2c1`, the IC50 amounted to 780 nM. For `Oc1cc(Nc2ccnc3cc(-c4cccc(CN5CCOCC5)c4)ccc23)c(F)cc1Cl` the value was 210 nM; for `Cc1cc(CN2CCC(N3CC(c4ccccc4)(c4ccccc4)OCC3=O)C2)ccc1O` (stereo not drawn), 1080 nM; for `CC(=O)c1ccccc1OCCSc1nnc(Cc2cccs2)n1C1CCCCC1`, 920 nM. Then `CCNc1cc(C)nc(Nc2ccc(NC(=O)c3c(F)cccc3Cl)cc2)n1`, with 1120 nM; and `O=C(CCc1cnc[nH]1)Nc1cccc(-c2ccc(-c3nc4ccccc4[nH]3)s2)c1`, with 760 nM; and `O=C(CSc1nc(-c2ccccc2Cl)ns1)Nc1ccc2c(c1)OCO2`, with 990 nM. The molecule `Cc1cccc2[nH]c(-c3cccc(-c4cccc(CNCc5cccc(N)c5)c4)c3)nc12` yielded an IC50 of 540 nM. Then `CC(=O)Nc1ccc(CN2CCC(CNC(=O)c3cc(-c4cccc(Cl)c4)cs3)C2)cc1` (stereo not drawn), with 1120 nM; and `Cc1[nH]c2ccc(NS(C)(=O)=O)cc2c1C1CCN(CC2CCN(C(=O)/C=C/c3ccc(Cl)c(Cl)c3)CC2)CC1`, with 680 nM; and `Cc1ccc(O)c(-c2cc(C(=O)Nc3ccc(S(=O)(=O)N4CCCC(C)C4)cc3)[nH]n2)c1` (stereo not drawn), with 710 nM. For `CCCC[C@@H](C(=O)NCCc1ccc(Cl)cc1)N1C(=O)CCC1C(=O)Nc1ccc(Cl)c(Cl)c1` (stereo partly drawn) the value was 870 nM; for `CCN(CC)c1nc(-c2ccccc2)cc(-c2ccccc2)c1C#N`, 450 nM; for `COc1ccc2nccc([C@@H](O)CN3CCC(NC(=O)C(=O)c4c[nH]c5c(C)cccc45)CC3)c2c1`, 310 nM.

Take `CN1CCC(NCc2ccc(S(=O)(=O)Nc3ccc(Oc4cccc(Cl)c4)cc3)cc2)CC1`: the IC50 worked out at 740 nM. Then `Cc1c(Cc2ccc(F)cc2)c(Cl)nc2nc(N)nc(N)c12`, with 860 nM; and `Cc1nc(N)nc(N)c1CCCOc1cccc(Cl)c1`, with 480 nM; and `CCOC(=O)N1CCN(CCCNc2c3ccc(Cl)cc3nc3ccc(OC)cc23)CC1`, with 100 nM. Then `CCCCNCc1ccc(OCc2cccc(COc3ccc(CNCCCC)cc3)c2)cc1`, with 320 nM; and `COc1cc2ccccc2c(CON2C(N)=NC(N)=NC2(C)C)c1OC`, with 50 nM; and `O=C(/C=C/c1ccc(Cl)c(Cl)c1)N1CCC(CN2CCC(c3c[nH]c4cnccc34)CC2)CC1`, with 220 nM. For `O=C(/C=C/c1cccc(Br)c1)NCCCCCN1CCC(c2c[nH]c3ccccc23)CC1` the value was 630 nM; for `CC(CNC1CCN(CCn2c(=O)ccc3ccc(F)cc32)CC1)c1ccccc1` (stereo not drawn), 1270 nM.

`COc1ccccc1CNc1ncc(-c2ccsc2)c(-c2nccs2)n1` had an IC50 of 330 nM. For `COc1cc(F)c2ncc(Cl)c(CCN3CCC(NCc4ccc5c(c4)OCCO5)CC3)c2c1` the value was 470 nM. Then `Nc1nc(-c2ccc3c(Nc4ccc(F)c(Cl)c4)ccnc3c2)cs1`, with 870 nM; and `N#Cc1cccc(NC(=O)Nc2cccc(-c3cccc(-c4nc5ccccc5[nH]4)c3)c2)c1`, with 90 nM; and `COC(=O)c1cccc(NC(=O)NCCNc2ccnc(Nc3ccc(F)cc3)n2)c1`, with 840 nM. Molecule `Cc1ccc(Nc2nnc(SCC(=O)Nc3ccc(CN4CCCC4)cc3)s2)cc1` showed an IC50 of 1210 nM.

The molecule `CCCc1ccc(NC(=O)c2cccc(CN3CCCN(Cc4cccc(C#N)c4)CC3)c2)cc1` came in with an IC50 of 980 nM. Regarding `CCc1cccc(NC(=O)/C=C/c2ccc3c(c2)CN(C)CC3)c1`, the IC50 was 770 nM. Then `Cc1cc(CNCCCCCCNCc2ccc(Cl)cc2)ccc1O`, with 820 nM.

With `CNC(=O)/C=C/c1cc(NC(=O)Nc2cc(C)nc3c(F)cccc23)ccc1OC`, the IC50 turned out to be 910 nM. Then `Cc1noc(C)c1-c1cccc(C(=O)NC2CCN(CCNC(=O)C(c3ccccc3)c3ccccc3)CC2)c1`, with 1220 nM; and `C=CC[C@H](C[C@H](O)[C@H](Cc1ccccc1)NC(=O)c1ccc(-c2cccnn2)cc1)C(=O)NC1CCCCC1`, with 1190 nM. For `CCOc1ccc2c(NN=Cc3ccccc3F)cc(C)nc2c1`, the IC50 came out at 680 nM.

`O=[N+]([O-])c1ccc(Oc2c(Cl)cc(S(=O)(=O)NC3CCC(CN4CCC(c5c[nH]c6ccccc56)CC4)CC3)cc2Cl)c(Cl)c1` (stereo not drawn) displayed an IC50 of 760 nM.

With `O=C(Nc1cccc(N2CCC(NCCCc3ccncc3)CC2)c1)c1cccc(C(F)(F)F)c1`, the IC50 came out at 850 nM.

The molecule `COc1cccc(OC)c1OCCCON1C(N)=NC(N)=NC1(C)C` yielded an IC50 of 10 nM. Turning to `CS(=O)(=O)c1cccc(-c2ccc3oc(C(N)=O)c(NC(=O)c4cccs4)c3c2)c1`, the IC50 is 590 nM. `CCCCNCCOc1ccc(-c2nc(-c3ccccc3)c(-c3ccccc3)[nH]2)cc1` yielded an IC50 of 680 nM.

`Oc1ccc(CCNc2nc(NCc3cccc(OCc4cccc(F)c4)c3)nc(N3CCNCC3)n2)cc1` displayed an IC50 of 1340 nM. `Cc1ccccc1C1CCN(c2ccc(C(=O)Nc3ccc(F)cc3)cn2)CC1` had an IC50 of 190 nM. In turn, `Nc1nc(N)c2c(ccc3c2ccn3Cc2ccc(OCc3ccccc3)cc2)n1` showed a half-maximal inhibitory concentration (IC50) of 930 nM. For `COc1ccc(C=NNc2cc(C)nc3ccc(OC)cc23)c(OC)c1` the value was 780 nM; for `O=C(Nc1ccc(Oc2ccccc2)cc1)N1CCC(CCN2CCC(c3c[nH]c4ccccc34)CC2)CC1`, 800 nM. Turning to `OC[C@H](Nc1nc(C(Oc2ccccc2)c2ccccc2)nc2[nH]ncc12)c1ccccc1` (stereo partly drawn), the IC50 came out at 850 nM.

In turn, `CC(=O)Nc1nc(C(=O)Nc2ccc(-c3cccc(-c4nc5ccc(C(F)(F)F)cc5[nH]4)c3)cc2)cs1` gave an IC50 of 180 nM.

Molecule `COc1cc([N+](=O)[O-])ccc1NC(=O)c1cc(Cl)ccc1O` gave an IC50 of 1140 nM.

In turn, `C/C=C1\CN2CC[C@H]1C[C@H]2[C@H](O)c1ccnc2ccc(O)cc12` gave an IC50 of 600 nM. On to `Cn1c(NC(=O)C2CCC(CNC(=O)c3ccc(O)c(-c4cccc([N+](=O)[O-])c4)c3)CC2)nc2ccccc21` (stereo not drawn), for which the IC50 stood at 980 nM. For `CCCCCCN1CCN(Cc2cccc(NC(=O)c3ccc(Cl)c(Cl)c3)c2)CC1` the value was 610 nM. As to `O=C(NC1CCC(CCN2Cc3cccc(C(F)(F)F)c3C2)CC1)c1cccc(-c2cccnc2)c1` (stereo not drawn), the IC50 came to 1020 nM. For `CCCNCc1ccc(-c2ccc(CN(CCOC)C(=O)/C=C/c3ccccc3C)cc2)nc1` the value was 900 nM.

As for `Cn1cccc1C(=O)NCC(CCNc1cc(=O)c2ccccc2[nH]1)NCc1cc(Br)cc(Br)c1` (stereo not drawn), the IC50 came to 910 nM. Then `COc1ccc2nccc([C@@H](O)CN3CCC(NCCNc4cccc(F)c4)CC3)c2c1`, with 180 nM. For `Nc1c(Cl)cc(C(O)CNCCCCCCCCCc2ccccn2)cc1Cl` (stereo not drawn) the value was 860 nM. As for `Oc1ccc(CCNc2nc(NCc3ccccc3-c3ccc(C(F)(F)F)cc3)nc(N3CCNCC3)n2)cc1`, the IC50 worked out at 870 nM. Then `O=C(Nc1ccc(CN2CCOCC2)cc1)c1ccc(-c2ccc(Cl)cc2)o1`, with 860 nM. Consider `O=S(=O)(NCCN1CCCC1)c1ccc(-c2cccc(CNCc3ccsc3)c2)s1`, for which the IC50 turned out to be 900 nM. For the molecule `CCCCCC(C)C(C)c1cc(O)c2c(c1)O[C@@]1(C(C)C)CC(O)[C@H](C)[C@@H]2C1` (stereo partly drawn), the IC50 turned out to be 990 nM. In turn, `O=S(=O)(Nc1cc2c(cc1O)CCN(C1CCC1)CC2)c1ccc(Oc2ccc(F)cc2)cc1` registered an IC50 of 780 nM. `O=C(Nc1ccc(N2CCNCC2)cc1)c1ccn2ncc(-c3cccc(Cl)c3)c2n1` yielded an IC50 of 920 nM. Molecule `Cc1ccc2nc(-c3cc(-c4cccc(CCN5CCOCC5)c4)cnc3N)[nH]c2c1` gave an IC50 of 170 nM. For `O=C(NCCCCN1CCC(c2ccc3c(c2OCCOCCO)CCCC3)CC1)c1ccc(-c2ccc(C(F)(F)F)cc2)cc1` the value was 280 nM. Then `Cc1c(C)c2c(c(C)c1O)CC[C@](C)(C(=O)N1CCC(CN3CCC(c4c[nH]c5ccccc45)CC3)CC1)O2`, with 720 nM. For `Cc1c(-c2cccc(Br)c2)[nH]c2nc(N)nc(N)c12` the value was 740 nM.

These data come from PubChem BioAssay AID2305 (GlaxoSmithKline (GSK), 2010).
